“Also recorded” adds a separate entry of the source.
How the values were obtained:
PGAM1 = PGAM1 (Homo sapiens, UniProt P18669); test: Thermal melt shift assay, PGAM1; type: binding; details: increasing concentrations, […] to 80 μM
Method: In brief, thermal shift assay of compound-protein interaction was performed in 384-well PCR plates with various compound concentrations and 200 μg/ml protein in a buffer solution (20 mM Tris-HCl, 100 mM NaCl, pH 7.4). SYPRO orange was used as a dye to monitor the fluorescence change at 610 nm. Small molecules were dissolved in DMSO and added to protein solution. Final DMSO concentration of solution is 1%. Dissociation constants (Kds) for protein-ligand interaction were calculated using the method as described.
The fluorescence intensity data were fitted to Eq. (1) to obtain ΔHu, ΔCpu, and Tm by nonlinear regression using the program Prism:
The thermal unfolding parameters for 6PGD and PGAM1 alone were determined from 4 control wells, each containing 0.2 mg/mL protein.

[1] = biological target: T1, PGAM1 in leukemia KG1a cells (Homo sapiens, UniProt P18669); test: PGAM1 inhibition in leukemia KG1a cells; type: cell-based; details: leukemia KG1a cells (2h); compared to alizarin, alizarin Red S, PGMI-001A
T1 construct: endogenous in cells; host or cells: KG1a leukemia cells; H1299 lung cancer cells

[2] = system: human dermal fibroblasts (HDF), human foreskin fibroblasts (HFF), HaCaT keratinocyte cells, melanocyte PIG1 cells; test: Cell proliferation of normal human cells; type: cell-based
Method: (§1) For leukemia cell proliferation assay, 10×10^4 cells were seeded in non-tissue culture coated 6-well plate and incubated at 37° C. for indicated times. Cell numbers were counted by trypan blue exclusion under a microscope (×40) at indicated times and the percentage of cell proliferation was determined by comparing PGAM1 knockdown cells to pLKO.1 vector expressing cells. […] Cell viability was determined by counting drug-treated cells compared to DMSO-treated control cells with trypan blue exclusion under a microscope (×40) and by using CellTiter96Aqueous One solution proliferation kit (Promega). For adherent cell proliferation assay such as H1299 and MDA-MB231 cells, 5×10^4 cells were seeded in 6-well plate 24 h before the assay starts and were cultured at 37° C. 24 h after seeding, cells were treated with 5 μM Methyl-2PG and incubated at 37° C. for indicated times. Cell proliferation was determined by the increase in cell number indicated times after the treatment starts compared to that at the treatment starts for each cell line (T=0). Cell numbers were counted by trypan blue exclusion under a microscope (×40). […] Cell viability was determined by counting drug-treated cells compared to DMSO-treated control cells with trypan blue exclusion under a microscope (×40). […] Cell viability was determined by using CellTiter96Aqueous One solution proliferation kit (Promega).

[3] = system: diverse human cancer and leukemia cells; test: Cell proliferation of diverse cancer and leukemia cells; type: cell-based; details: diverse human cancer and leukemia cells incl. H1299, KG1a, 212LN; 72h
Method: as §1

T1 sequence (P18669 whole entry): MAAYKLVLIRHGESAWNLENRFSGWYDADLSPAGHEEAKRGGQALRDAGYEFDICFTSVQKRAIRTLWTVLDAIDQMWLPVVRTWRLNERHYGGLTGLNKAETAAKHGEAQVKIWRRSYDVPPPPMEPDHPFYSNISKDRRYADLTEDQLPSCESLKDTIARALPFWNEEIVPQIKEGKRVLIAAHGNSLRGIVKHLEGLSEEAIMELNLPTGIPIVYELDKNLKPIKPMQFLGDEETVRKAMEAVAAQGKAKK
PGAM1, sequence (P18669 whole entry): as above

For `O=C1c2ccccc2C(=O)c2c1cc(S(=O)(=O)Nc1ccc(C(F)(F)F)cc1)c(O)c2O` [PGMI-004A, N-(4-trifluoromethyl)-penyl-3,4-dihydroxy-9,10-dioxo-2-anthracenesulfonamide], the “PGAM1 melting temperature (Tm)” value (PGAM1) was “raises PGAM1 melting temperature (Tm) in a dose-dependent manner”, the “potency of PGAM1 inhibition in cells” value [1] was “more potent activity; also recorded: enhanced potency to inhibit PGAM1” and the “cell proliferation / non-specific toxicity in normal cells” value [2] was “does not affect cell proliferation; also recorded: minimal non-specific toxicity”. The cell proliferation [3] was “decreased cell proliferation”.

Reference: patent publication US10464890B2, “PGAM1 inhibitors and methods related thereto” (Emory University, priority 2011, dated 2019)
